Earlier results in US9616027B2, “Pramipexole sustained release tablet formulation and manufacturing method thereof and use thereof” (SHIJIAZHUANG RAPISTEP PHARMACEUTICAL TECHNOLOGY R&D INC., priority 2013, dated 2017).
Where two headings read alike, the source gives them in different places.

Assays:
[1] = not given; remark: listed apart in the source
[2] = in vivo
[3] = tested on: patients with advanced Parkinson's disease; conditions: with levodopa

CCCN[C@H]1CCc2nc(N)sc2C1 [Pramipexole, (S)-2-Amino-4,5,6,7-tetrahydro-6-(propylamino) benzothiazole]
solubility in a pH 2 to pH 7.4 buffer media (pH 2 to pH 7.4 buffer media): higher than 10 mg/ml
Water-solubility (water): greater than 20 mg/ml
crystal modification (monohydrate) under grinding ([1]; grinding): does not change under grinding
stability in the solid state ([1]; solid state): very stable
stability of solution to light ([1]; solution): light sensitive
effect of food intake on absorption [2]: Food intake shall influence absorption
kinetic characteristics [2]: linear kinetic characteristics
UPDRS score ([3]; 0.375 mg increased to 4.5 mg, 18 weeks of treatment): −11.0
regulation change of the "off" state ([3]; 18 weeks of treatment): -2.1 h
UPDRS score ([3]; 33 weeks of treatment): −11.1
